Laboratory results from patent US20050096259A1, “Neutrophil activation by immune response modifier compounds” (3M Innovative Properties Company, priority 2003, published 2005).

system: TLR8, TLR7; assay: TLR agonism classification (TLR8 versus TLR7 agonist); format: cell-based; settings: classification in words; agonist of TLR8 but not TLR7 = TLR8-selective; no numeric data given
Description: The TLR agonism for a particular compound may be assessed in any suitable manner. […] The assay used to assess the agonism of a compound with respect to one TLR may be the same as, or a different than, the assay used to assess the agonism of the compound with respect to another TLR.
Similarly, a compound may be identified as not acting as a TLR7 agonist (i.e., a TLR7 non-agonist) if, when used to perform an assay designed to detect TLR7-mediated biological activity, the compound fails to elicit a threshold increase in TLR7-mediated biological activity. […] An assay may or may not be performed in conjunction with the appropriate control.
Assays employing HEK293 cells transfected with an expressible TLR structural gene may use a threshold of, for example, at least a three-fold increase in a TLR-mediated biological activity (e.g., NFKB activation) when the compound is provided at a concentration of, for example, from about 1 μM to about 30 μM for identifying a compound as an agonist of the TLR transfected into the cell. However, different thresholds and/or different concentration ranges may be suitable in certain circumstances. Also, different thresholds may be appropriate for different assays.

SMILES	TLR agonist selectivity (TLR7/TLR8) as stated for the compound
CCCCCCCCCCCCCCCC(=O)NCCOCCn1c(CCOC)nc2c(N)nc3ccccc3c21 [Compound 5, N-(2-{2-[4-amino-2-(2-methoxyethyl)-1H-imidazo[4,5-c]quinolin-1-yl]ethoxy}ethyl)hexadecanamide]	TLR8-selective agonist
CCOCc1nc2c(N)nc3c(c2n1CC(C)(C)O)CCCC3 [Compound 2, 4-amino-2-(ethoxymethyl)-α,α-dimethyl-6,7,8,9-tetrahydro-1H-imidazo[4,5-c]quinoline-1-ethanol]	TLR7/8 agonist
CC(C)Cn1cnc2c(N)nc3ccccc3c21 [Compound 4, 1-(2-methylpropyl)-1H-imidazo[4,5-c]quinolin-4-amine, reference compound]	TLR7-selective agonist
CCc1nc2c(N)nc3ccccc3c2n1CCCCNS(C)(=O)=O [Compound 3, N-[4-(4-amino-2-ethyl-1H-imidazo[4,5-c]quinolin-1-yl)butyl]methanesulfonamide]	TLR7-selective agonist
CCOCc1nc2c(N)nc3ccccc3c2n1CCNS(C)(=O)=O [Compound 6, N-{2-[4-amino-2-(ethoxymethyl)-1H-imidazo[4,5-c]quinolin-1-yl]ethyl}methanesulfonamide]	TLR8-selective agonist
